Measurements published in US20260042755A1, “GPR6 INVERSE AGONISTS” (MapLight Therapeutics, Inc., priority 2022, published 2026).

Tests used:
[1] = target: T1, GPR6 (Homo sapiens, UniProt P46095); test: GPR6 antagonist functional cAMP assay (LANCE Ultra cAMP TR-FRET, CHO cells stably expressing GPR6); format: cell-based
T1 construct: expressed in transfected cells; host or cells: CHO cells
Outline: (§1)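 We measure cAMP by TR-FRET (665 nm) in cells held in glucose-containing Krebs-Ringer buffer with BSA and a PDE inhibitor, after a 45 min, 37 °C compound incubation. IC50s derive from a four-parameter logistic fit.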

[2] = target: T2, GPR3 (Homo sapiens, UniProt P46089); test: GPR3 antagonist functional cAMP assay (LANCE Ultra cAMP TR-FRET, CHO cells stably expressing GPR3); format: cell-based
T2 construct: expressed in transfected cells; host or cells: CHO cells
Outline: as §1

[3] = CHO cells stably expressing GPR6, cAMP assay
[4] = CHO cells stably expressing GPR3, cAMP assay
[5] = procedure as described in Example 24
[6] = CHO cells stably expressing GPR6, cAMP assay (Example 24)
[7] = CHO cells stably expressing GPR3, cAMP assay (Example 24)

T2 sequence (P46089 whole entry, species assumed): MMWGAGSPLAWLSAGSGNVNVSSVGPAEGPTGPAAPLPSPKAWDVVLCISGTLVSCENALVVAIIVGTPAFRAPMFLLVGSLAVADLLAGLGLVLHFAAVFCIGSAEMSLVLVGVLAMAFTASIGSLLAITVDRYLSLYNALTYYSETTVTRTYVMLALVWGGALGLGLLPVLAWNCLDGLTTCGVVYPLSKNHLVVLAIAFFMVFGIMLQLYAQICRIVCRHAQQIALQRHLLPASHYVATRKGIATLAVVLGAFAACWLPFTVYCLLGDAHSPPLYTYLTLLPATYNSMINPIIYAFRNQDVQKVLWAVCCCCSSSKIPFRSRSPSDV
T1 sequence (P46095 whole entry): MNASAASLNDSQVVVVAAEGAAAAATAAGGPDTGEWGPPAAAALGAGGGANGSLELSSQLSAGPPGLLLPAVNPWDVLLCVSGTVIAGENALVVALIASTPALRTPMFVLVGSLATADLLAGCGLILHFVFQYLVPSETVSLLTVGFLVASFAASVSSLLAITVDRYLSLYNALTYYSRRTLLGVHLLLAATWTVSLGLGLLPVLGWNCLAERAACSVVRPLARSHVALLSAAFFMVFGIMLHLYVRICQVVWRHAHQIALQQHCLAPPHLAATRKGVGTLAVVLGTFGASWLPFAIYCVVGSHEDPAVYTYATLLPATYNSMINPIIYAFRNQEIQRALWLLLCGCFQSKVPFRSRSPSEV

CC(C)(O)C(O)c1cc2nc(-c3cnn(C(F)F)c3)c(N3CCC(=Cc4ccc(F)cc4F)CC3)nc2cn1 (single isomer, unassigned) [Compound 766]
IC50 ([1]; procedure of Example 24): 100 to 1000 nM
IC50 ([2]; procedure of Example 24): 1000 to 30000 nM

CN(C)C(=O)N1CCc2nc(N3CCC(Oc4ccc(F)cc4F)CC3)c(-c3ccc(F)c(N)n3)nc2C1 [Compound 629, 6-{6-(N,N-dimethylcarbamoyl)-2-[4-(2,4-difluorophenoxy)-1-piperidyl]-5,6,7,8-tetrahydro-1,4,6-triaza-3-naphthyl}-3-fluoro-2-pyridylamine]
IC50 ([1]; procedure of Example 24): < 100 nM
IC50 ([2]; procedure of Example 24): 1000 to 30000 nM

CC(=O)N1CCc2nc(N3CCC(Cc4ccc(F)cc4F)C3)c(-c3cnn(C)c3)nc2C1 (stereo not drawn) [Compound 738, 1-(2-{3-[(2,4-difluorophenyl)methyl]-1-pyrrolidinyl}-3-(1-methyl-4-pyrazolyl)-5,6,7,8-tetrahydro-1,4,6-triaza-6-naphthyl)-1-ethanone]
IC50 ([1]; procedure of Example 24): 1000 to 30000 nM
IC50 ([2]; procedure of Example 24): 1000 to 30000 nM

CC(=O)N1CCc2nc(N3CCC(Oc4ccc(C(F)(F)F)cc4F)CC3)c(-c3cnn(C)c3)nc2C1 [Compound 501, 1-(2-{4-[2-fluoro-4-(trifluoromethyl)phenoxy]-1-piperidyl}-3-(1-methyl-4-pyrazolyl)-5,6,7,8-tetrahydro-1,4,6-triaza-6-naphthyl)-1-ethanone]
IC50 [1, 3]: 100 to 1000 nM
IC50 [2, 4]: 100 to 1000 nM

CC(=O)N1CCc2nc(N3CCC(Oc4ccc(F)cc4F)CC3)c(-c3ccncn3)nc2C1 [Compound 13, 1-{2-[4-(2,4-difluorophenoxy)piperidin-1-yl]-3-(pyrimidin-4-yl)-5H,6H,7H,8H-pyrido[3,4-b]pyrazin-6-yl}ethan-1-one]
IC50 [1, 5]: 1000 to 30000 nM
IC50 [2, 5]: 100 to 1000 nM

CC(=O)N1CCc2nc(N3CCC(Oc4ccc(F)cc4F)CC3)c(-c3cnn(C4CS(=O)(=O)C4)c3)nc2C1 [Compound 82, 3-(4-{6-acetyl-2-[4-(2,4-difluorophenoxy)piperidin-1-yl]-5H,6H,7H,8H-pyrido[3,4-b]pyrazin-3-yl}-1H-pyrazol-1-yl)-1λ^6-thietane-1,1-dione]
IC50 [1, 6]: 1000 to 30000 nM
IC50 [2, 7]: 1000 to 30000 nM

CC(C)(O)Cc1cc2nc(-c3cnn(CF)c3)c(N3CCC(Oc4ccc(F)cc4F)CC3)nc2cn1 [Compound 717, 1-{3-[4-(2,4-difluorophenoxy)-1-piperidyl]-2-[1-(fluoromethyl)-4-pyrazolyl]-1,4,6-triaza-7-naphthyl}-2-methyl-2-propanol]
IC50 ([1]; procedure of Example 24): 100 to 1000 nM
IC50 ([2]; procedure of Example 24): 1000 to 30000 nM

CC(=O)N1CCc2nc(N3CCN(Cc4cccc(=O)n4C)CC3)c(-c3cnn(C)c3)nc2C1 [Compound 533, 6-({4-[6-acetyl-3-(1-methyl-4-pyrazolyl)-5,6,7,8-tetrahydro-1,4,6-triaza-2-naphthyl]-1-piperazinyl}methyl)-1-methyl-2(1H)-pyridinone]
IC50 [1, 3]: ≥ 30000 nM
IC50 [2, 4]: ≥ 30000 nM

CCn1cc(-c2nc3c(nc2N2CCC(Oc4ccc(F)cc4F)CC2)CCN(S(C)(=N)=O)C3)cn1 (stereo not drawn) [Compound 485, 2-(4-(2,4-difluorophenoxy)piperidin-1-yl)-3-(1-ethyl-1H-pyrazol-4-yl)-6-(S-methylsulfonimidoyl)-5,6,7,8-tetrahydropyrido[3,4-b]pyrazine]
IC50 [1, 6]: 100 to 1000 nM
IC50 [2, 7]: 1000 to 30000 nM

CC(C)(O)[C@](C)(O)c1cc2nc(-c3cnn(C(F)F)c3)c(N3CCN(Cc4cc(F)ccc4F)CC3)nc2cn1 (single isomer, unassigned) [Compound 795]
IC50 ([1]; procedure of Example 24): 100 to 1000 nM
IC50 ([2]; procedure of Example 24): 1000 to 30000 nM

CC(=O)N1CCc2nc(N3CCC(Oc4ccc(F)cc4C)CC3)c(-c3cnn(C)c3)nc2C1 [Compound 432, 1-{2-[4-(4-fluoro-2-methylphenoxy)piperidin-1-yl]-3-(1-methyl-1H-pyrazol-4-yl)-5H,6H,7H,8H-pyrido[3,4-b]pyrazin-6-yl}ethan-1-one]
IC50 [1, 6]: 1000 to 30000 nM
IC50 [2, 7]: 1000 to 30000 nM

COc1cccc(-c2nc3c(nc2N2CCC(Oc4ccc(F)cc4F)CC2)CCN(C(C)=O)C3)n1 [Compound 86, 1-(2-(4-(2,4-difluorophenoxy)piperidin-1-yl)-3-(6-methoxypyridin-2-yl)-7,8-dihydropyrido[3,4-b]pyrazin-6(5H)-yl)ethan-1-one]
IC50 [1, 6]: 100 to 1000 nM
IC50 [2, 7]: 1000 to 30000 nM

COc1ccc(-c2nc3c(nc2N2CCC(Oc4ccc(F)cc4F)CC2)CCN(C(C)=O)C3)nn1 [Compound 189, 1-{2-[4-(2,4-difluorophenoxy)piperidin-1-yl]-3-(6-methoxypyridazin-3-yl)-5H,6H,7H,8H-pyrido[3,4-b]pyrazin-6-yl}ethan-1-one]
IC50 [1, 6]: 100 to 1000 nM
IC50 [2, 7]: 1000 to 30000 nM

Cn1cc(-c2nc3cnc([C@H]4C[C@@H]4C(=O)O)cc3nc2N2CCC(Oc3ccc(F)cc3F)CC2)cn1 (single isomer, unassigned) [Compound 737]
IC50 ([1]; procedure of Example 24): 1000 to 30000 nM
IC50 ([2]; procedure of Example 24): 1000 to 30000 nM

CC(=O)N1CCc2nc(N3CCC(Oc4ccc(F)cc4F)CC3)c(-c3ccn(C)c(=O)c3)nc2C1 [Compound 78, 4-{6-acetyl-2-[4-(2,4-difluorophenoxy)piperidin-1-yl]-5H,6H,7H,8H-pyrido[3,4-b]pyrazin-3-yl}-1-methyl-1,2-dihydropyridin-2-one]
IC50 [1, 6]: 1000 to 30000 nM
IC50 [2, 7]: 1000 to 30000 nM

Cn1cc(-c2nc3cnc(OCCO)cc3nc2N2CCC(Oc3ccc(F)cc3F)CC2)cn1 [Compound 399, 2-({2-[4-(2,4-difluorophenoxy)piperidin-1-yl]-3-(1-methyl-1H-pyrazol-4-yl)pyrido[3,4-b]pyrazin-7-yl}oxy)ethan-1-ol]
IC50 [1, 6]: 1000 to 30000 nM
IC50 [2, 7]: 1000 to 30000 nM

CC(=O)N1CCc2nc(N3CC[C@H](Oc4ccc(F)cc4F)[C@H](F)C3)c(-c3cnn(C)c3)nc2C1 (single isomer, unassigned) [Compound 334]
IC50 ([1]; procedure of Example 24): 1000 to 30000 nM
IC50 ([2]; procedure of Example 24): 1000 to 30000 nM

CC(=O)N1CCc2nc(N3CC=CCC3)c(-c3cnn(C)c3)nc2C1 [Compound 422, 1-[3-(1-methyl-1H-pyrazol-4-yl)-2-(1,2,3,6-tetrahydropyridin-1-yl)-5H,6H,7H,8H-pyrido[3,4-b]pyrazin-6-yl]ethan-1-one]
IC50 [1, 6]: ≥ 30000 nM
IC50 [2, 7]: 1000 to 30000 nM

1-(3-{6-acetyl-2-[4-(2,4- difluorophenoxy)piperidin- 1-yl]-5H,6H,7H,8H- pyrido[3,4-b]pyrazin-3- yl}-4H,5H,6H,7H- pyrazolo[1,5-a]pyrazin-5- yl)ethan-1-one [Compound 106]
IC50 [1, 6]: 1000 to 30000 nM
IC50 [2, 7]: 1000 to 30000 nM

CC(=O)N1CCc2nc(N3CCN(C(=O)c4ccc(Cl)c(C)c4)CC3)c(-c3cnn(C)c3)nc2C1 [Compound 539, 1-{2-[4-(4-chloro-3-toluoyl)-1-piperazinyl]-3-(1-methyl-4-pyrazolyl)-5,6,7,8-tetrahydro-1,4,6-triaza-6-naphthyl}-1-ethanone]
IC50 [1, 3]: 1000 to 30000 nM
IC50 [2, 4]: 1000 to 30000 nM

CC(=O)N1CCc2nc(N3CCC(Oc4ccc(F)cc4F)CC3)c(-c3cn[nH]c3C(C)C)nc2C1 [Compound 31, 1-{2-[4-(2,4-difluorophenoxy)piperidin-1-yl]-3-[5-(propan-2-yl)-1H-pyrazol-4-yl]-5H,6H,7H,8H-pyrido[3,4-b]pyrazin-6-yl}ethan-1-one]
IC50 [1, 5]: 1000 to 30000 nM
IC50 [2, 5]: 1000 to 30000 nM

CC(=O)N1CCc2nc(N3CCC(Oc4cccc(F)c4)CC3)c(-c3cnn(C)c3)nc2C1 [Compound 393, 1-{2-[4-(3-fluorophenoxy)piperidin-1-yl]-3-(1-methyl-1H-pyrazol-4-yl)-5H,6H,7H,8H-pyrido[3,4-b]pyrazin-6-yl}ethan-1-one]
IC50 [1, 6]: 1000 to 30000 nM
IC50 [2, 7]: 1000 to 30000 nM

CC(=O)N1CCc2nc(N3CCC(Oc4ccc(F)cc4C#N)CC3)c(-c3cnn(C)c3)nc2C1 [Compound 497, 2-{1-[6-acetyl-3-(1-methyl-4-pyrazolyl)-5,6,7,8-tetrahydro-1,4,6-triaza-2-naphthyl]-4-piperidyloxy}-5-fluorobenzonitrile]
IC50 [1, 3]: 100 to 1000 nM
IC50 [2, 4]: 1000 to 30000 nM

CC(=O)N1CCc2nc(N3CCC(Oc4cc(Cl)ccc4F)CC3)c(-c3cnn(C)c3)nc2C1 [Compound 457, 1-{2-[4-(5-chloro-2-fluorophenoxy)piperidin-1-yl]-3-(1-methyl-1H-pyrazol-4-yl)-5H,6H,7H,8H-pyrido[3,4-b]pyrazin-6-yl}ethan-1-one]
IC50 [1, 6]: 100 to 1000 nM
IC50 [2, 7]: 1000 to 30000 nM

CC(C)(O)C(O)c1cc2nc(-c3cnn(C(F)F)c3)c(N3CCC(=Cc4ccc(F)cc4F)CC3)nc2cn1 (single isomer, unassigned) [Compound 767]
IC50 ([1]; procedure of Example 24): 100 to 1000 nM
IC50 ([2]; procedure of Example 24): 1000 to 30000 nM

Cn1cc(-c2nc3cnc([C@H](O)C(C)(C)F)cc3nc2N2CCC(Oc3ccc(F)cc3F)CC2)cn1 (single isomer, unassigned) [Compound 743]
IC50 ([1]; procedure of Example 24): 100 to 1000 nM
IC50 ([2]; procedure of Example 24): 1000 to 30000 nM

Cn1cc(-c2nc3cnc([C@](C)(O)C(C)(C)O)cc3nc2N2CCC(Oc3ccc(F)cc3F)CC2)cn1 (single isomer, unassigned) [Compound 673]
IC50 ([1]; procedure of Example 24): 100 to 1000 nM
IC50 ([2]; procedure of Example 24): 1000 to 30000 nM

CC(=O)N1CCc2nc(N3CCN(Cc4cc(F)ccc4F)CC3)c(-c3ccc(F)c(N)n3)nc2C1 [Compound 581, 1-[3-(6-amino-5-fluoro-2-pyridyl)-2-{4-[(2,5-difluorophenyl)methyl]-1-piperazinyl}-5,6,7,8-tetrahydro-1,4,6-triaza-6-naphthyl]-1-ethanone]
IC50 [1, 3]: < 100 nM
IC50 [2, 4]: 1000 to 30000 nM

CC(C)(O)C(=O)N1CCc2nc(N3CCC(Oc4ccc(F)cc4F)CC3)c(-c3ccc(F)c(N)n3)nc2C1 [Compound 639, 1-{3-(6-amino-5-fluoro-2-pyridyl)-2-[4-(2,4-difluorophenoxy)-1-piperidyl]-5,6,7,8-tetrahydro-1,4,6-triaza-6-naphthyl}-2-hydroxy-2-methyl-1-propanone]
IC50 ([1]; procedure of Example 24): 100 to 1000 nM
IC50 ([2]; procedure of Example 24): 100 to 1000 nM

CC(=O)N1CCc2nc(N3CCC(Oc4ccc(F)cc4F)CC3)c(C3CCN(C4COC4)C3)nc2C1 (stereo not drawn) [Compound 544, 1-{2-[4-(2,4-difluorophenoxy)-1-piperidyl]-3-[1-(3-oxetanyl)-3-pyrrolidinyl]-5,6,7,8-tetrahydro-1,4,6-triaza-6-naphthyl}-1-ethanone]
IC50 [1, 3]: 1000 to 30000 nM
IC50 [2, 4]: 1000 to 30000 nM
